# Measurements taken from patent US20220112149A1, “DRUG DESIGN METHOD ASSOCIATED WITH NATURAL PRODUCTS, PENTACYCLIC TRITERPENOID COMPOUND, PREPARATION METHOD AND APPLICATIONS THEREOF” (Huazhong Agricultural University, priority 2020, published 2022).
# “Also recorded” adds a separate entry of the source.
# Key:
# [1] = test system: Leptin-deficient ob/ob mice; experiment: GA-02 in ob/ob mice, intraperitoneal; assay type: in vivo; conditions: 20 mg/kg i.p.
# Protocol: Eight-week-old male ob/ob and db/db mice are adapted to the environment under normal conditions for one week. The animals are grouped according to the body weight and blood glucose, 2 cages in each group, 5 animals in each cage. Mice are acclimatized with the vehicle for 3 days in the experimental group (25 μL DMSO/day) and are injected with drugs by intraperitoneal injection (20 mg/kg; 25 μL per injection). Mice in the control group are injected with the same volume of vehicle. The administration starts from 18:00 every day for 14 consecutive days. The body weight and food intake of mice are recorded every day.
# [2] = test system: high-fat-induced obese mice; experiment: GA-02 in high-fat-induced obese mouse model, intraperitoneal; assay type: in vivo, C57BL/6 mice
# Protocol: Animals are fed with 60% calorie high-fat diets (purchased from Bio-medicine) for 14 consecutive weeks. […] When the blood glucose is greater than 11 mmol/L and the body weight is greater than 42 g, the administration is started. […] The injection volume is 25 μL per day. In addition, a vehicle (25 μL DMSO) and positive drug (Celastrol) control are established. […] Mice in the blank group and GA-02 treatment group underwent pathological anatomy, to observe the changes in organs before and after administration. Samples are taken to prepare pathological sections.
# The models are constructed by feeding high-fat diets to C57BL/6 male mice for 14 weeks. Mice with body weight greater than 42 g and blood glucose higher than 11 mmol/L are obese model mice. Mice are grouped by blood glucose and body weight. Model mice in each group are given three doses of GA-02 (high-, medium-and low-doses, 4, 12, 20 mg/kg, 25 μL/day) by intraperitoneal injection for 14 consecutive days. Mice in the blank control group are given DMSO (25 μL/day) by intraperitoneal injection, and the food intakes and body weights are recorded every day.
# [3] = test system: mRNA of IL-1β, TNF-α, IL-6 and MCP-1; experiment: qRT-PCR of inflammatory factor mRNA; assay type: cell-based; conditions: activated by LPS
# Protocol: FIGS. 10A-10C show the inhibition verification effect chart of GA-02 in Example 5, where FIG. 10A: GA-02 inhibited LPS-induced ICAM-1 expression activity. The inflammatory pathway of HMEC-1 cell was activated by 1 μg/mL LPS, to determine the effect of Celastrol and GA-02 on the expression of ICAM-1 induced by LPS. FIG. 10B: The effect of GA-02 on NF-κB signaling. The NF-κB luciferase reporter plasmid was used to transfect HEK293 cells, and the effects of Celastrol and GA-02 on the NF-κB activity induced by TNF-α were determined; FIG. 10C: qRT-PCR was used to detect mRNA relative expressions of IL-1β, TNF-α, IL-6 and MCP-1.
# ICAM-1 is a downstream effector molecule regulated by NF-κB signaling pathway, and NF-κB plays an important role in regulating the expression of ICAM-1 gene. Celastrol can inhibit the activation of the LPS-induced IKK/NF-κB signaling pathway. In order to validate that GA-02 functions through the IKK/NF-κB signaling pathway, we constructed an NF-κB luciferase reporter gene system to validate the inhibitory activity of Celastrol and GA-02 on the luciferase reporter gene. […] In addition, both Celastrol and GA-02 could down-regulate the mRNA transcription levels of inflammatory factors IL-1β, TNF-α, IL-6 and MCP-1 activated by LPS.
# mildly obese mice = experiment: GA-02 in mildly obese mouse model, intraperitoneal; assay type: in vivo, C57BL/6 mice
# Protocol: The animal feeding and experiment method are as follows. […] The food intake and body weights of mice in each group are measured every day.
# lean mice (about 22 g) = conditions: mouse, in vivo, ip
# Protocol: The animal feeding and experiment method are as follows. Six-week-old SPF-grade C57BL/6 mice (purchased from Hubei Provincial Center for Disease Control and Prevention) are fed in SPF animal house at a room temperature of 22° C., 4 mice per cage. Animals are fed with ordinary mouse feeds (purchased from) for 2 consecutive weeks. Mice are free to take food and the padding is changed every two days, and the body weights and blood glucose are monitored every week. When the body weight reaches 22 g, the administration is started. The drug is dissolved in DMSO solvent and administered by intraperitoneal injection at an injection volume of 25 μL per day. In addition, a vehicle and positive drug control are established. The food intake and body weight changes of mice in each group are measured every day.
# obese mice of about 45 g = experiment: GA-02 intragastric administration in obese mice; assay type: in vivo; conditions: 40 mg/kg intragastric, two weeks
# Protocol: The lean mice of about 25 g, mildly obese mice of weighing about 30 g, and obese mice of about 45 g are given blank vehicle and high-dose GA-02 (40 mg/kg) by intragastric administration, respectively.
# [4] = high-dose (20 mg/kg) i.p., second day
# [5] = high-dose (20 mg/kg) i.p., third day
# [6] = low-, medium- and high-dose (4, 12, 20 mg/kg) i.p.
# [7] = low-, medium- and high-dose (4, 12, 20 mg/kg) i.p., 14 days
structure (smiles),measurement,setting,value
"CC1(C(=O)O)CCC2(C)CCC3(C)C(=CC(=O)C4C5(C)C=C(O)C(=O)C(C)(C)C5CCC43C)C2C1 (centres unmarked) [GA-02, 3,11-dicarbonyl-1,12-diene-2-hydroxy-oleanane-30 carboxylic acid]",food intake compared with the blank vehicle group,[1]; 14 days,"reduced, but it is not significant"
same,overall decrease in body weight,[1]; 14 days,not significant
same,body weight increase,"[1]; in the first five days, later dropped to the initial body weight",10%
same,accumulated fats in the visceral tissues,"[2]; after administration for two weeks, dissection",completely dissipated
same,average daily food intake decreased compared to the vehicle control group,"[2]; first week, high dose 20 mg/kg i.p.",63.2%
same,average daily food intake,"[2]; first week, high dose 20 mg/kg i.p., vehicle 2.31±0.18 g",0.85 ± 0.23 g
same,average daily food intake decreased compared to the vehicle control group,"[2]; first week, low dose 4 mg/kg i.p.",20.8%
same,average daily food intake,"[2]; first week, low dose 4 mg/kg i.p., vehicle 2.31±0.18 g",1.83 ± 0.28 g
same,average daily food intake decreased compared to the vehicle control group,"[2]; first week, medium dose 12 mg/kg i.p.",27.3%
same,average daily food intake,"[2]; first week, medium dose 12 mg/kg i.p., vehicle 2.31±0.18 g",1.68 ± 0.35 g
same,body weight reduced by,"[2]; high dose 20 mg/kg i.p., 14 days",26.42±0.73%
same,body weight two weeks after administration,"[2]; high dose 20 mg/kg i.p., 14 days, from 42.14±1.37 g",30.07 ± 1.23 g
same,lipid droplets in the liver (oil red O and H&E staining),[2]; high-dose (20 mg/kg) i.p.,completely disappeared
same,liver function indexes AST and ALT vs vehicle control group,[2]; high-dose (20 mg/kg) i.p.,significantly lower
same,average daily food intake,"[2]; high-dose (20 mg/kg) i.p., first day of administration, day 0: 2.0±0.18 g",0.60 ± 0.02 g
same,body weight,"[2]; high-dose (20 mg/kg) i.p., first day, from 42.09±0.42 g",40.98 ± 0.57 g
same,average daily food intake,[2]; [4],0.47 ± 0.16 g
same,body weight,[2]; [4],39.94 ± 0.62 g
same,average daily food intake,[2]; [5],0.39 ± 0.11 g
same,body weight,[2]; [5],39.23 ± 0.71 g
same,blood glucose tolerance (GTT) and insulin tolerance (ITT),[2]; high-dose administration group,significantly improved
same,effect on suppressing appetite and reducing body weight (summary),"[2]; intraperitoneal injection, obese mice",strong effect
same,body weight reduced by,"[2]; low dose 4 mg/kg i.p., 14 days",9.88±2.37%
same,body weight two weeks after administration,"[2]; low dose 4 mg/kg i.p., 14 days, from 42.50±1.71 g",38.46 ± 0.95 g
same,fat contents vs obese model mice (NMR body fat quantitative analysis),[2]; [6],significantly lower
same,lean body masses (NMR body fat quantitative analysis),[2]; [6],no significant change
same,fasting blood glucose level,[2]; [7],reduce to a normal level; also recorded: return to the normal levels
same,weights of liver and epididymal fat compared to the vehicle control group,[2]; [7],decrease in a dose-dependent manner
same,body weight reduced by,"[2]; medium dose 12 mg/kg i.p., 14 days",13.15±2.73%
same,body weight two weeks after administration,"[2]; medium dose 12 mg/kg i.p., 14 days, from 41.41.±1.17 g",35.45 ± 1.15 g
same,average daily food intake decreased compared to the vehicle control group,"[2]; second mention of 'first week', high dose 20 mg/kg i.p.",68.8%
same,average daily food intake,"[2]; second mention of 'first week', high dose 20 mg/kg i.p., vehicle 2.47±0.13 g",0.70 ± 0.16 g
same,average daily food intake decreased compared to the vehicle control group,"[2]; second mention of 'first week', low dose 4 mg/kg i.p.",37.2%
same,average daily food intake,"[2]; second mention of 'first week', low dose 4 mg/kg i.p., vehicle 2.47±0.13 g",1.55 ± 0.12 g
same,average daily food intake decreased compared to the vehicle control group,"[2]; second mention of 'first week', medium dose 12 mg/kg i.p.",45.3%
same,average daily food intake,"[2]; second mention of 'first week', medium dose 12 mg/kg i.p., vehicle 2.47±0.13 g",1.35 ± 0.18 g
same,"mRNA transcription levels of inflammatory factors IL-1β, TNF-α, IL-6 and MCP-1",[3],down-regulate
same,food intake and body weight vs vehicle control group,"mildly obese mice; high-dose i.p., mild obesity group, body weight of about 28 g",significantly lower
same,effect on suppressing appetite and reducing body weight (summary),"mildly obese mice; intraperitoneal injection, mildly obese mice",significant effect
same,body weights,lean mice (about 22 g),no decrease but an upward trend
same,effect on the food intake and body weight (summary),lean mice (about 22 g),no effect
same,food intakes compared to the vehicle control group,lean mice (about 22 g),no significant change
same,average daily food intake reduced by,obese mice of about 45 g,50%
same,body weight reduced by,obese mice of about 45 g,21%
